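1) Cells in 96-well plates. 2) Compound, 48 h, 5 concentrations. 3) Linear interpolation between surrounding doses. 4) Unreached endpoint = highest concentration. Here, GI50 denotes the concentration required for 50% inhibition of growth. The concentration for full growth arrest is given as TGI.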
Tests used:
Assay in all cases: NCI anticancer screen, dose series, 48 h
786-0 renal = tested on: 786-0 renal
A498 renal = tested on: A498 renal
A549 NSCLC = tested on: A549 NSCLC
ACHN renal = tested on: ACHN renal
BT-549 breast = tested on: BT-549 breast
CAKI-1 renal = tested on: CAKI-1 renal
CCRF-CEM leukemia = tested on: CCRF-CEM leukemia
COLO 205 colon = tested on: COLO 205 colon
DU-145 prostate = tested on: DU-145 prostate
EKVX NSCLC = tested on: EKVX NSCLC
HCC-2998 colon = tested on: HCC-2998 colon
HCT-116 colon = tested on: HCT-116 colon
HCT-15 colon = tested on: HCT-15 colon
HL-60(TB) leukemia = tested on: HL-60(TB) leukemia
HOP-62 NSCLC = tested on: HOP-62 NSCLC
HOP-92 NSCLC = tested on: HOP-92 NSCLC
HS 578T breast = tested on: HS 578T breast
HT29 colon = tested on: HT29 colon
IGROV1 ovarian = tested on: IGROV1 ovarian
K-562 leukemia = tested on: K-562 leukemia
KM12 colon = tested on: KM12 colon
LOX IMVI melanoma = tested on: LOX IMVI melanoma
M14 melanoma = tested on: M14 melanoma
MALME-3M melanoma = tested on: MALME-3M melanoma
MCF7 breast = tested on: MCF7 breast
MDA-MB-231 breast = tested on: MDA-MB-231 breast
MDA-MB-435 = tested on: MDA-MB-435
MDA-MB-468 breast = tested on: MDA-MB-468 breast
MOLT-4 leukemia = tested on: MOLT-4 leukemia
NCI-H226 lung = tested on: NCI-H226 lung
NCI-H23 lung = tested on: NCI-H23 lung
NCI-H460 lung = tested on: NCI-H460 lung
NCI-H522 lung = tested on: NCI-H522 lung
NCI/ADR-RES ovarian = tested on: NCI/ADR-RES ovarian
OVCAR-3 ovarian = tested on: OVCAR-3 ovarian
OVCAR-4 ovarian = tested on: OVCAR-4 ovarian
OVCAR-5 ovarian = tested on: OVCAR-5 ovarian
OVCAR-8 ovarian = tested on: OVCAR-8 ovarian
PC-3 prostate = tested on: PC-3 prostate
RPMI-8226 leukemia = tested on: RPMI-8226 leukemia
RXF 393 renal = tested on: RXF 393 renal
SF-268 CNS = tested on: SF-268 CNS
SF-295 CNS = tested on: SF-295 CNS
SF-539 CNS = tested on: SF-539 CNS
SK-MEL-2 melanoma = tested on: SK-MEL-2 melanoma
SK-MEL-28 melanoma = tested on: SK-MEL-28 melanoma
SK-MEL-5 melanoma = tested on: SK-MEL-5 melanoma
SK-OV-3 ovarian = tested on: SK-OV-3 ovarian
SN12C renal = tested on: SN12C renal
SNB-19 CNS = tested on: SNB-19 CNS
SNB-75 CNS = tested on: SNB-75 CNS
SR leukemia = tested on: SR leukemia
SW-620 colon = tested on: SW-620 colon
T-47D breast = tested on: T-47D breast
TK-10 renal = tested on: TK-10 renal
U251 CNS = tested on: U251 CNS
UACC-257 melanoma = tested on: UACC-257 melanoma
UACC-62 melanoma = tested on: UACC-62 melanoma
UO-31 renal = tested on: UO-31 renal

## COc1ccc(Cc2nn(CC(=O)N/N=C/c3ccc(F)cc3)c(=O)c3c(C)noc23)cc1
786-0 renal
  GI50: 2.12 µM
  TGI: 4.63 µM
A498 renal
  GI50: 1.83 µM
  TGI: 3.73 µM
A549 NSCLC
  GI50: 3.02 µM
  TGI: 10.1 µM
ACHN renal
  GI50: 1.95 µM
  TGI: 3.83 µM
BT-549 breast
  GI50: 12.2 µM
  TGI: 35.7 µM
CAKI-1 renal
  GI50: 2.02 µM
  TGI: 4.62 µM
CCRF-CEM leukemia
  GI50: 9.65 µM
  TGI: > 100 µM
COLO 205 colon
  GI50: 8.3 µM
  TGI: 35.2 µM
DU-145 prostate
  GI50: 5.87 µM
  TGI: 18.8 µM
EKVX NSCLC
  GI50: 4.39 µM
  TGI: 21.4 µM
HCC-2998 colon
  GI50: 5.46 µM
  TGI: 19.7 µM
HCT-116 colon
  GI50: 2.47 µM
  TGI: 6.77 µM
HCT-15 colon
  GI50: 9.27 µM
  TGI: 89.3 µM
HL-60(TB) leukemia
  GI50: 68.8 µM
  TGI: > 100 µM
HOP-62 NSCLC
  GI50: 1.93 µM
  TGI: 4.04 µM
HOP-92 NSCLC
  GI50: 2.34 µM
  TGI: 6.97 µM
HS 578T breast
  GI50: 3.19 µM
  TGI: 15.1 µM
HT29 colon
  GI50: 10.9 µM
  TGI: 25.5 µM
IGROV1 ovarian
  GI50: 7.58 µM
  TGI: 22.8 µM
K-562 leukemia
  GI50: 31.4 µM
  TGI: > 100 µM
KM12 colon
  GI50: 26.5 µM
  TGI: > 100 µM
LOX IMVI melanoma
  GI50: 4.65 µM
  TGI: 22 µM
M14 melanoma
  GI50: 8.67 µM
  TGI: 38 µM
MALME-3M melanoma
  GI50: 3.63 µM
  TGI: 15 µM
MCF7 breast
  GI50: 8.44 µM
  TGI: 35.1 µM
MDA-MB-231 breast
  GI50: 5.66 µM
  TGI: 19.5 µM
MDA-MB-435
  GI50: 9.52 µM
  TGI: 31.3 µM
MDA-MB-468 breast
  GI50: 3.87 µM
  TGI: 17.7 µM
MOLT-4 leukemia
  GI50: 22.6 µM
  TGI: > 100 µM
NCI-H226 lung
  GI50: 1.8 µM
  TGI: 4.61 µM
NCI-H23 lung
  GI50: 6.72 µM
  TGI: 20.9 µM
NCI-H460 lung
  GI50: 3.27 µM
  TGI: 11.3 µM
NCI-H522 lung
  GI50: 10.4 µM
  TGI: 31.2 µM
NCI/ADR-RES ovarian
  GI50: 4.03 µM
  TGI: 17.2 µM
OVCAR-3 ovarian
  GI50: 3.44 µM
  TGI: 11.2 µM
OVCAR-4 ovarian
  GI50: 1.8 µM
  TGI: 3.47 µM
OVCAR-5 ovarian
  GI50: 7.18 µM
  TGI: 25.1 µM
OVCAR-8 ovarian
  GI50: 6.96 µM
  TGI: 60.6 µM
PC-3 prostate
  GI50: 5.43 µM
  TGI: 23.4 µM
RPMI-8226 leukemia
  GI50: 9.01 µM
  TGI: > 100 µM
RXF 393 renal
  GI50: 2.42 µM
  TGI: 6.47 µM
SF-268 CNS
  GI50: 5.81 µM
  TGI: 36.9 µM
SF-295 CNS
  GI50: 2.07 µM
  TGI: 4.86 µM
SF-539 CNS
  GI50: 10.5 µM
  TGI: 22.8 µM
SK-MEL-2 melanoma
  GI50: 12.1 µM
  TGI: 29.5 µM
SK-MEL-28 melanoma
  GI50: 6.9 µM
  TGI: 21.8 µM
SK-MEL-5 melanoma
  GI50: 12.8 µM
  TGI: 33.4 µM
SK-OV-3 ovarian
  GI50: 1.99 µM
  TGI: 3.97 µM
SN12C renal
  GI50: 2.36 µM
  TGI: 6.08 µM
SNB-19 CNS
  GI50: 4.48 µM
  TGI: 20.4 µM
SNB-75 CNS
  GI50: 2 µM
  TGI: 4.49 µM
SR leukemia
  GI50: 16.1 µM
  TGI: > 100 µM
SW-620 colon
  GI50: 5.59 µM
  TGI: 22.9 µM
T-47D breast
  GI50: 2.24 µM
  TGI: 5.88 µM
TK-10 renal
  GI50: 2.4 µM
  TGI: 6.39 µM
U251 CNS
  GI50: 2.65 µM
  TGI: 8.07 µM
UACC-257 melanoma
  GI50: 6.33 µM
  TGI: 29.1 µM
UACC-62 melanoma
  GI50: 8.63 µM
  TGI: 25.1 µM
UO-31 renal
  GI50: 1.79 µM
  TGI: 3.84 µM

From PubChem BioAssay (NCI)
